Broadly, the AC50 is the midpoint of the concentration-response curve, whichever way the signal moves. Lower therefore signals activity at low concentration.

The source of these data is ChEMBL document CHEMBL5291721, “A preclinical secondary pharmacology resource illuminates target-adverse drug reaction associations of marketed drugs” (Nat Commun, 2023).

Some results are limits rather than exact numbers.

The target in test [1] is T1, Peroxisome proliferator-activated receptor alpha (Homo sapiens, UniProt Q07869).
T1 sequence (Q07869 whole entry): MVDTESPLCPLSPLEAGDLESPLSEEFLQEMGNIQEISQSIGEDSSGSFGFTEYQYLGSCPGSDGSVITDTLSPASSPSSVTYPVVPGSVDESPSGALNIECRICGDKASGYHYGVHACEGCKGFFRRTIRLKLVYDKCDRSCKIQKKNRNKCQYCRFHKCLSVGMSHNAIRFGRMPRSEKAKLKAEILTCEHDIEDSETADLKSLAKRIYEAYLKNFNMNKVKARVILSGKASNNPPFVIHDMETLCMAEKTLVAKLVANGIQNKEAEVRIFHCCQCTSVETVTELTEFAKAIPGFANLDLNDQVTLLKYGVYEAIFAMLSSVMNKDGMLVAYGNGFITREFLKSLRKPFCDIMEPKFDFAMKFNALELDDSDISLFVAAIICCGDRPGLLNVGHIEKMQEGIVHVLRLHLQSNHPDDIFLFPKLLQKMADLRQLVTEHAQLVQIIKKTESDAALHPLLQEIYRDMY
The test is classed as functional.

Test [2] addresses T1, Peroxisome proliferator-activated receptor alpha. The test is classed as functional. The source holds these as a separate data set.
The target of test [3] is Hydroxycarboxylic acid receptor 2 (Homo sapiens, UniProt Q8TDS4).
Test [4] has as its target T2, Muscarinic acetylcholine receptor M4 (Homo sapiens, UniProt P08173).
T2 sequence (P08173 whole entry): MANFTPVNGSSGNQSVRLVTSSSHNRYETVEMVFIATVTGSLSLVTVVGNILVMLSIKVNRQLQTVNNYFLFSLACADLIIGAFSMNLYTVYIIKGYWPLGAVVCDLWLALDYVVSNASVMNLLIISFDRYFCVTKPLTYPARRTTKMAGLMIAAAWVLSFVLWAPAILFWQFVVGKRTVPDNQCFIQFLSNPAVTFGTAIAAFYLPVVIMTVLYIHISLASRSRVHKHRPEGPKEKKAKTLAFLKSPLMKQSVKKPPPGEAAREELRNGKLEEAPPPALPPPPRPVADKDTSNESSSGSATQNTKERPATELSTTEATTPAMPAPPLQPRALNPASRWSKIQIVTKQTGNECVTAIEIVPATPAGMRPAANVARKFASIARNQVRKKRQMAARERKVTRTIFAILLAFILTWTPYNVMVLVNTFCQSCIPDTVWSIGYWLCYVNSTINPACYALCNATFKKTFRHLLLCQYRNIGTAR

Test [5] deals with T3, Substance-K receptor (Homo sapiens, UniProt P21452).
T3 sequence (P21452 whole entry): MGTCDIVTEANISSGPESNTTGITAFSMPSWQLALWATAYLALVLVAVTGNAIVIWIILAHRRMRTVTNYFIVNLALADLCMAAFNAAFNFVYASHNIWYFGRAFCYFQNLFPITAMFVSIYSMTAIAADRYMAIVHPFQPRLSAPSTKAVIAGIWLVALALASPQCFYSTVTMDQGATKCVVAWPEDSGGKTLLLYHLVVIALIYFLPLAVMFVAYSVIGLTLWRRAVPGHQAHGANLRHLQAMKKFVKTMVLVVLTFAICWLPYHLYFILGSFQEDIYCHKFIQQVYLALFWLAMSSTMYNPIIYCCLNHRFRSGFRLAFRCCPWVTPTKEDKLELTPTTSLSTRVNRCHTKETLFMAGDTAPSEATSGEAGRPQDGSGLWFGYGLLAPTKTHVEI

Test [6] concerns the target T4, Estrogen receptor (Homo sapiens, UniProt P03372).
T4 sequence (P03372 whole entry): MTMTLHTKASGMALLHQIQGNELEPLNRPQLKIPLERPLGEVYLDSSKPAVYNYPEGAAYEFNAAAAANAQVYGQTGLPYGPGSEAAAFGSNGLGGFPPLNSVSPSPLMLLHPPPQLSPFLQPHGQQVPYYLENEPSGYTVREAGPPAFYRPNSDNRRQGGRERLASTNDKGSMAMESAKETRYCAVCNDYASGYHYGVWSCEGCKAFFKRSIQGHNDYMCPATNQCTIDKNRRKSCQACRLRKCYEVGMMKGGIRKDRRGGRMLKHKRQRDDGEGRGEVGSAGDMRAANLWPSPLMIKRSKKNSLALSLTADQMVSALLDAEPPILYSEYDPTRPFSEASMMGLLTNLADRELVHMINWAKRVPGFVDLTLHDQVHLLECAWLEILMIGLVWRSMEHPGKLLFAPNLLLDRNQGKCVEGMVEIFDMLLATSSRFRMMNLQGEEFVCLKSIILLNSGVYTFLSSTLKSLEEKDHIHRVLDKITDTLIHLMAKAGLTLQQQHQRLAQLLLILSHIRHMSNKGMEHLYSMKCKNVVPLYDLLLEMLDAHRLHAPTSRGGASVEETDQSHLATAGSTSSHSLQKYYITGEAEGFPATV
In kind it is functional.

The target in test [7] is T5, Glucocorticoid receptor (Homo sapiens, UniProt P04150).
T5 sequence (P04150 whole entry): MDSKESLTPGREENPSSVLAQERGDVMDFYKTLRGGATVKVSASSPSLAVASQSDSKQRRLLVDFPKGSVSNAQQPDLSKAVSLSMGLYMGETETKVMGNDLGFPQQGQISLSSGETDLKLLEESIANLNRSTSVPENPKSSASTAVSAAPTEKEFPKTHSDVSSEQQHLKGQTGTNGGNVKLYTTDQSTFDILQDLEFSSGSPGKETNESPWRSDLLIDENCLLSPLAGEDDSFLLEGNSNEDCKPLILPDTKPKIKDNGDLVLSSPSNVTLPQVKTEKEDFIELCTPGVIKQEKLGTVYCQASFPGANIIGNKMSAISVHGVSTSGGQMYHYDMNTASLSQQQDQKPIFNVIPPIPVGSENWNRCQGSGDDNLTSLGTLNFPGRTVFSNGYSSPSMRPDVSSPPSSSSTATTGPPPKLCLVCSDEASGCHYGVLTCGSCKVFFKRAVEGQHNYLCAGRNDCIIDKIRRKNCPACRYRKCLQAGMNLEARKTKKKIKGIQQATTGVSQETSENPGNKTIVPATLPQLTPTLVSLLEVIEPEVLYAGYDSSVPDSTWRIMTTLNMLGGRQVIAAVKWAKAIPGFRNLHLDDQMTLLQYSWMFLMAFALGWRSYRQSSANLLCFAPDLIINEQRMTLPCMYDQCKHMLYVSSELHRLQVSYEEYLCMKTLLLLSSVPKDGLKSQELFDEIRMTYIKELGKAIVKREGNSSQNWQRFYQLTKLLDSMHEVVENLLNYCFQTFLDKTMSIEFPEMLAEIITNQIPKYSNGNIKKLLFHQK
The test is classed as functional.
Note: assay procedure not described here.

Hydroxycarboxylic acid receptor 2, sequence (Q8TDS4 whole entry): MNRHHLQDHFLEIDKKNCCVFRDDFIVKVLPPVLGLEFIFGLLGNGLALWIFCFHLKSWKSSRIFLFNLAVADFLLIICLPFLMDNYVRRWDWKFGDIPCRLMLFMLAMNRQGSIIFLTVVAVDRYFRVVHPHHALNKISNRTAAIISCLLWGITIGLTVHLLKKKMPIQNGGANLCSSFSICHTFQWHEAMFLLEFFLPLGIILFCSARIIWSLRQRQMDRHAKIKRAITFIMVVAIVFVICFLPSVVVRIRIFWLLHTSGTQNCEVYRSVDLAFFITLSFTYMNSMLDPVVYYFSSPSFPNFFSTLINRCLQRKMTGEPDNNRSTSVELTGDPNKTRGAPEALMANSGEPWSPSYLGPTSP

On to `CC(C)(Oc1ccc(Cl)cc1)C(=O)OCCOC(=O)c1cccnc1` [ETOFIBRATE], for which the AC50 in test [1] and in test [2] was greater than 30 µM in each case.

With `Cc1cnc(C(=O)O)c[n+]1[O-]` [ACIPIMOX], the AC50 in test [3] is 3.9 µM.

As to `N=C(N)NC(=O)c1nc(Cl)c(N)nc1N` [AMILORIDE], the half-maximal activity concentration (AC50) in test [4] and in test [5] was greater than 10 µM throughout.

Turning to `COc1cccc2c1C(=O)c1c(O)c3c(c(O)c1C2=O)C[C@@](O)(C(=O)CO)C[C@@H]3O[C@H]1C[C@H](N)[C@H](O)[C@H](C)O1` [DOXORUBICIN], the AC50 in test [6] and in test [7] was greater than 10 µM each time.
